Test results taken from paper PMC6264278, “Corydaline Inhibits Multiple Cytochrome P450 and UDP-Glucuronosyltransferase Enzyme Activities in Human Liver Microsomes” (Molecules, 2011).

Biological target: T1, UGT1A4 (Homo sapiens, UniProt P22310)
T1 construct: using pooled human liver microsomes; tissue BD Gentest Co. H161; host or cells: pooled human liver microsomes
T1 sequence (P22310 29-534): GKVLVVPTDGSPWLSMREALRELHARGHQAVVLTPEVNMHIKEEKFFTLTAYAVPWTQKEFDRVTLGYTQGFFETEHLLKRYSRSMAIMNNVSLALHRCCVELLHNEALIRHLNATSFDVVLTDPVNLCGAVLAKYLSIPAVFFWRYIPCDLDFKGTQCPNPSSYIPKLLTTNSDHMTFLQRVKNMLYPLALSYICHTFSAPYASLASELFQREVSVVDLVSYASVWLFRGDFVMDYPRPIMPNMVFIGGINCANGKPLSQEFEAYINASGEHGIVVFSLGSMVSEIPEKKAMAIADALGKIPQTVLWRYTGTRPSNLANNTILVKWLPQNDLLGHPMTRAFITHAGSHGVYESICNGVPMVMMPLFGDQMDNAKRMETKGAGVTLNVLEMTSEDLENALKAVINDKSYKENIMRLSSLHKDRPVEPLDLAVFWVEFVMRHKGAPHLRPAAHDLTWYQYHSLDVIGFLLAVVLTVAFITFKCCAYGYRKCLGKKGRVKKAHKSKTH
Test: UGT1A4 trifluoperazine N-glucuronidation inhibition in pooled human liver microsomes
Assay type: in vitro ADME
Conditions: pooled human liver microsomes (H161), 5 μM trifluoperazine, no inhibition at 1,000 μM of corydaline
Method: The inhibitory potencies (IC50 values) of corydaline were also determined with UGT assays in the presence and absence of corydaline (final concentrations of 1–1,000 μM with acetonitrile concentration less than 0.5% v/v) using pooled human liver microsomes. 17β-Estradiol 3-glucuronidation, trifluoperazine glucuronidation, propofol glucuronidation, and azidothymidine glucuronidation activities were determined as probe activities for UGT1A1, UGT1A4, UGT1A9, and UGT2B7, respectively, using LC/MS/MS. Incubation mixtures were prepared in a total volume of 100 μL, as follows: Pooled human liver microsomes (0.2 mg/mL for 17β-estradiol, trifluoperazine and azidothymidine; 0.1 mg/mL for propofol), 2 mM UDPGA, 25 μg/mL alamethicin, 10 mM MgCl2, 50 mM tris buffer (pH 7.4), UGT-isoform specific probe substrate (20 μM 17β-estradiol for UGT1A1, 5 μM trifluoperazine for UGT1A4, 10 μM propofol for UGT1A9, or 100 μM azidothymidine for UGT2B7), and various concentrations of corydaline (1−1000 μM). […]
Glucuronides produced from UGT isoform-specific substrates were respectively determined by LC/MS/MS. […] Quantification was performed by SRM of the [M+H]^+ ion for trifluoperazine glucuronide and azidothymidine glucuronide or [M−H]^− for 17β-estradiol 3-glucuronide and propofol glucuronide and the related product ion for each metabolite. […]

## COc1cc2c(cc1OC)C1C(C)c3ccc(OC)c(OC)c3CN1CC2 (centres unmarked) [Corydaline, 2,3,9,10-tetramethoxy-13-methyl-5,8,13,13a-tetrahydro-6H-isoquino[3,2-a]isoquinoline]
  IC50, UGT1A4 trifluoperazine N-glucuronidation: not inhibited
Listed as corydaline
  IC50, UGT1A4 trifluoperazine N-glucuronidation: No inhibition *
